Data: ChEMBL document CHEMBL3596161, “Progress Toward the Development of Noscapine and Derivatives as Anticancer Agents” (J Med Chem, 2015)

What was measured:
Tubulin (Homo sapiens) = Tubulin (Homo sapiens) (UniProt P68371+Q9H4B7+P0DPH7+P68366+Q13509+Q71U36+P04350+Q3ZCM7+P07437+P68363+Q9BQE3+Q6PEY2+Q13885+Q9BVA1+Q9BUF5); assay: Inhibition of MAPs-rich tubulin (unknown origin) polymerization at 50 uM; assay type: protein-complex assay
[1] = Cytotoxicity against human NCI/ADR cells; settings: NCI/ADR-RES
[2] = Cytotoxicity against human NCI-ADR-RES cells expressing ABCB1
HeLa [3] = assay: Antimitotic activity against human HeLa cells; assay type: functional, cell-based
HeLa [4] = assay: Cell cycle arrest in human HeLa cells assessed as accumulation at G2/M phase by measuring 4N DNA content at 6.4 uM by flow cytometry; assay type: functional
Tubulin = assay: Binding affinity to tubulin (unknown origin); assay type: protein-complex assay, Homo sapiens
MCF7 = assay: Cytotoxicity against human MCF7 cells; assay type: functional, cell-based
A549 = assay: Cytotoxicity against human A549 cells; assay type: functional, cell-based
CCRF-CEM = assay: Cytotoxicity against human CEM cells; assay type: functional, cell-based
HeLa [5] = assay: Cytotoxicity against human HeLa cells; assay type: functional, cell-based

Question: With COc1ccc2c(c1OCCCS(=O)(=O)O)C(=O)O[C@@H]2[C@H]1c2c(c(Br)c3c(c2OC)OCO3)CCN1C as the compound, how does the inhibition (Tubulin (Homo sapiens)) read?
Answer: 61%

Question: For COc1cc2c(c(OC)c1OC)-c1ccc(OC)c(=O)cc1[C@@H](NC(C)=O)CC2 [COLCHICINE], which IC50 [1] is on record?
Answer: 0.00036 µM

Question: What about the IC50 [2] of the same compound?
Answer: 0.096 µM

Question: Which results are given for COc1ccc2c(c1OC)CO[C@@H]2[C@H]1c2c(c(Br)c3c(c2OC)OCO3)CCN1C?
Answer: EC50 (HeLa [3]): 3.6 µM; Activity (HeLa [4]): 72.7%; Kd (Tubulin): 106 µM

Question: With COc1ccc2c(c1OC)C(=O)O[C@@H]2[C@H]1c2c(cc3c(c2OC)OCO3)CCN1Cc1ccc([N+](=O)[O-])cc1 as the compound, how does the IC50 (MCF7) read?
Answer: 38.2 µM

Question: And the IC50 (A549)?
Answer: 49 µM

Question: And the IC50 (CCRF-CEM)?
Answer: 10 µM

Question: What about the IC50 (HeLa [5]) of the same compound?
Answer: 23.7 µM

Question: With CCOC(=O)CN1CCc2cc3c(c(OC)c2[C@@H]1[C@H]1OC(=O)c2c1ccc(OC)c2OC)OCO3 as the compound, how does the IC50 (MCF7) read?
Answer: 52.6 µM

Question: And the IC50 (A549)?
Answer: 72.3 µM

Question: What about the IC50 (CCRF-CEM) of the same compound?
Answer: 13.6 µM

Question: What about the IC50 (HeLa [5]) of the same compound?
Answer: 32.4 µM

Question: Which IC50 (MCF7) does the source give for COc1ccc2c(c1OC)C(=O)O[C@@H]2[C@H]1c2c(cc3c(c2OC)OCO3)CCN1CC(C)=O here?
Answer: 25.3 µM

Question: What about the IC50 (A549) of the same compound?
Answer: 28 µM

Question: What about the IC50 (CCRF-CEM) of the same compound?
Answer: 6.9 µM

Question: And the IC50 (HeLa [5])?
Answer: 15.8 µM

Question: Which inhibition (Tubulin (Homo sapiens)) does the source give for COc1ccc2c(c1OCCCCS(=O)(=O)O)C(=O)O[C@@H]2[C@H]1c2c(c(Br)c3c(c2OC)OCO3)CCN1C here?
Answer: 68%

Question: Which IC50 (MCF7) does the source give for COc1ccc2c(c1OC)C(=O)O[C@@H]2[C@H]1c2c(cc3c(c2OC)OCO3)CCN1Cc1cccc(Br)c1 here?
Answer: 27.8 µM

Question: What about the IC50 (A549) of the same compound?
Answer: 32.1 µM

Question: And the IC50 (CCRF-CEM)?
Answer: 7.5 µM

Question: And the IC50 (HeLa [5])?
Answer: 17.3 µM

Question: Which results are given for COc1ccc2c(c1OC)C(=O)O[C@@H]2[C@H]1c2c(cc3c(c2OC)OCO3)CCN1Cc1cccc(Cl)c1?
Answer: IC50 (MCF7): 45.8 µM; IC50 (A549): 61.3 µM; IC50 (CCRF-CEM): 11.9 µM; IC50 (HeLa [5]): 28.3 µM

Question: Which IC50 (MCF7) does the source give for COc1ccc2c(c1OC)C(=O)O[C@@H]2[C@H]1c2c(cc3c(c2OC)OCO3)CCN1Cc1ccc(Br)cc1 here?
Answer: 34.1 µM

Question: And the IC50 (A549)?
Answer: 42.4 µM

Question: And the IC50 (CCRF-CEM)?
Answer: 9 µM

Question: And the IC50 (HeLa [5])?
Answer: 21.2 µM

Question: Which results are given for COc1ccc(CN2CCc3cc4c(c(OC)c3[C@@H]2[C@H]2OC(=O)c3c2ccc(OC)c3OC)OCO4)cc1?
Answer: IC50 (MCF7): 28.7 µM; IC50 (A549): 33.5 µM; IC50 (CCRF-CEM): 7.7 µM; IC50 (HeLa [5]): 17.9 µM
